Assays:
[1] = tested on: PAF-induced secretion of [^3 H]serotonin-labeled rabbit platelets; assay: PAF-induced platelet secretion ([^3 H]serotonin); type: cell-based; conditions: Oryctolagus cuniculus, washed rabbit platelets, antagonist 60 sec before PAF (0.2 nM to 0.2 μM), read 60 sec after PAF
Method: (§1) PAF-induced platelet aggregation and secretion: Washed, [^3 H]serotonin labeled rabbit platelets were prepared as previously described in COX, C. P , J. LINDEN and S. I. SAID: VIP elevates platelet cyclic AMP (cAMP) levels and inhibits in vitro platelet activation induced by platelet-activating factor (PAF). Peptides 5:25-28, 1984, and maintained in an atmosphere of 5% CO2 at 37° C. until used in the bioassay. Aliquots of platelets (2.5×10^8 /ml) were incubated with either an antagonist of PAF or the appropriate vehicle for 60 sec prior to the addition of PAF (0.2 nM to 0.2 μM). Aggregation was continuously monitored on a strip-chart recorder and recorded as the height of the tracing at 60 sec after the addition of PAF. Secretion of [^3 H] serotonin was measured in a sample of the platelet suspension removed at 60 sec after the addition of PAF. The percent inhibition of aggregation and secretion was calculated by comparing antagonist-treated platelets with the appropriate vehicle-treated control platelets. Each combination of antagonist and PAF was repeated using different platelet preparations. IC50 values were determined by inspection of the dose-response curves.

[2] = tested on: PAF-induced aggregation of washed rabbit platelets; assay: PAF-induced platelet aggregation; type: cell-based; conditions: Oryctolagus cuniculus, antagonist 60 sec before PAF (0.2 nM to 0.2 μM), read 60 sec after PAF
Method: as §1

[3] = target: PAF receptor (Human Platelet Membrane Receptors) (Homo sapiens, UniProt P25105)
Chain of PAF receptor (Human Platelet Membrane Receptors) (P25105 whole entry): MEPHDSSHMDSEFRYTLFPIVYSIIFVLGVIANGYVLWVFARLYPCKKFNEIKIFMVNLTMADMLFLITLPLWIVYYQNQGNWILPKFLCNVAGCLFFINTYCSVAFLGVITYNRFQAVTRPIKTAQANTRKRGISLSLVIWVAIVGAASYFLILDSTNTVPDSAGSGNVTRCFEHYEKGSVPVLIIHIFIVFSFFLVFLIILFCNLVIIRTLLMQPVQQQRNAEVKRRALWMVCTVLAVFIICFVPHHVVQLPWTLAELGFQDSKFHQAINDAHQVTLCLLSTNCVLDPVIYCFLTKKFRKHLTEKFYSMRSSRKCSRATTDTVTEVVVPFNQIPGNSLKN
Method: Inhibition of ^3 H-PAF Binding to Human Platelet Membrane Receptors
Receptor Preparation: Ten units of in-dated human packed platelets, each containing 45-65 ml platelet rich-plasma, were purchased from a commercial blood bank. Disposable plasticware was used throughout for receptor preparation. The units were pooled and a 1 ml aliquot was removed for determination of platelet concentration, using a Coulter Counter. […] Protein content was determined by a fluorescamine protein assay.
Assay Methods: Receptor Characterization--Each receptor preparation was evaluated to determine the number of receptor populations, the number of PAF receptor equivalents/mg protein and the dissociation constant (KD) for PAF binding. This required 2-3 experiments in which the protein concentration was held constant and the ^3 H-PAF ligand concentration was varied from approximately 0.10-2.5 nM and the data was analyzed by Scatchard methodology. […]
Assay Methods: Routine Assay of Compounds--The compounds were weighed precisely and solubilized in quantities of DMSO such that a 5 μl aliquot in the incubate would deliver the desired compound concentration. Compounds tested for the first time in this assay were evaluated at a concentration of 50 μM in the incubation medium. […]

SMILES | IC50 [1] [µM] | IC50 [2] [µM] | IC50 [3] [nM] | inhibition at 50 µM ([3]; read-out: inhibited ^3 H-PAF binding (triazolam compound inhibition control)) [%]
CN(C(=O)c1ccc(Cn2ccc3ncnc-3c2)o1)C1CCCCC1 [Example 2, N-cyclohexyl-5-[(5H-imidazo[4,5-c]pyridin-5-yl)methyl]N-methyl-2-furancarboxamide] | 50 | ~100 |  | 
O=C(c1ccc(Cn2ccc3ncnc-3c2)o1)N(C1CCCCC1)C1CCCC1 [Example 3] | 2.8 | 10 to 100 |  | 
O=C(c1ccc(Cn2ccc3ncnc-3c2)nc1)N(C1CCCC1)C1CCCC1 [Example 1, N,N-dicyclopentyl-6-(5H-imidazo[4,5-c]pyridin-5-yl-methyl)-3-pyridinecarboxamide] |  |  | 880 | 
Cc1nnc2n1-c1ccc(Cl)cc1C(c1ccccc1Cl)=NC2 [Triazolam, triazolam, reference compound] |  |  |  | ~50
